Assay results from patent US20110236316A1, “PEPTIDE TARGETING IMAGING AGENTS AND METHODS OF USE THEREOF” (University of Utah Research Foundation, priority 2008, published 2011).

Experiments:
[1] = test system: MDA-MB-231 human breast carcinoma xenografts; test: In vivo MR molecular imaging in MDA-MB-231 xenografts; parameters: species or system mice
[2] = test system: HT-29 human colon carcinoma xenografts; test: In vivo MR molecular imaging in HT-29 xenografts; parameters: species or system mice; conditions: 0.1 mmol/kg iv
Protocol: In vivo molecular imaging of fibrin-fibronectin complexes in tumor with the targeted contrast agent and MRI was evaluated in female athymic nu/nu mice bearing HT-29 human colon carcinoma xenografts with a T1-weighted 2D spin-echo sequence. A clinical contrast agent, Gd(DTPA-BMA), was used as a control. Competitive targeting of free CLT1 peptide to CLT1-(Gd-DTPA) was also studied with coinjection of CLT1-(Gd-DTPA) and a 3-fold excess of free CLT1 peptide. A group of 3 mice were used for each contrast agent. The mice were anesthetized by intramuscular administration of a mixture of ketamine (45 mg/kg) and xylazine (6 mg/kg) for MRI. The CLT1-(Gd-DTPA) and Gd(DTPA-BMA) was intravenously injected at a dose of 0.1 mmol/kg. Contrast enhanced MR images were acquired before and after injection at 1, 10, 20, 30 and 60 minutes on a Siemens Trio 3T scanner using a human wrist coil. High resolution 3D images were acquired with a 3D FLASH sequence with 25° flip angel, TR/TE=7.8/2.7 ms, slice thickness 0.5 mm, field of view (FOV) 120 mm, voxel size 0.5×0.5×0.5 mm T1-weighted 2D axial tumor images were acquired with a 2D spin echo sequence with TR 400 ms, TE 10 ms, 90° tip angel and FOV 50 mm Mice were sacrificed 24 hours post-injection and tumor tissues were cut and fixed with 3% paraformaldehyde and embedded in paraffin. Tissue sections (4-μm thickness) were incubated in 3% H2O2 for 10 minutes to block endogenous peroxidase activity and boiled in antigen retrieval solution for 15 minutes in microwave. The sections were then incubated with primary antibody overnight and secondary antibody the second day for visualization using the ABC kit (Santa Cruz Biotechnology).
MR signal intensity was also measured and the contrast to noise ratio (CNR) in the tumor tissues was calculated as CNR=(SItissue−SImuscle)/SDnoise.

[3] = up to 60 minutes post-injection

CNC(=O)CN(CCN(CCN(CC(=O)[O-])CC(=O)NC)CC(=O)[O-])CC(=O)[O-].[Gd+3] [Gd(DTPA-BMA)]
tumor enhancement (T1-weighted 2D spin-echo MRI) ([1]; after 30 minutes post-injection, 0.1 mmol/kg): decreased significantly
tumor enhancement (T1-weighted 2D spin-echo MRI) ([1]; first 15 minutes post-injection, CLT1-(Gd-DTPA) 0.05 mmol/kg, Gd(DTPA-BMA) 0.1 mmol/kg): Significant tumor enhancement
tumor enhancement compared with CLT1-(Gd-DTPA) [2]: didn't show a strong tumor enhancement
CNR time course, tumor inner area [2, 3]: decreased rapidly
CNR time course, tumor periphery [2, 3]: decreased rapidly
